Experimental findings from PubChem BioAssay (NCI) are described below.

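Test compounds were applied to cells in 96-well plates for 48 hours at 5 doses. The concentration for full growth arrest is given as TGI.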

Test systems include UO-31 renal; SF-295 CNS; HS 578T breast; MALME-3M melanoma; TK-10 renal; DU-145 prostate; CAKI-1 renal; RPMI-8226 leukemia.
What all share (test): NCI-60 cell line screen, 48 h

Take `CC(C)NC(=O)OCCN=c1c2ccccc2ccc2ccccc12`: the TGI in the assay on UO-31 renal was 64.4 µM; in the assay with SF-295 CNS, > 100 µM; with HS 578T breast, > 100 µM; in the assay with MALME-3M melanoma it was > 100 µM; in the assay on TK-10 renal it was > 100 µM; in the assay with DU-145 prostate it was > 100 µM. Also, the TGI in the assay with CAKI-1 renal is > 100 µM.

As to `COc1cccc(/C=N/n2c(C)n[nH]c2=O)c1`, the TGI in the assay with UO-31 renal was > 100 µM; with SF-295 CNS, > 100 µM; with HS 578T breast, 43.8 µM; in the assay on RPMI-8226 leukemia it was > 100 µM; with MALME-3M melanoma, > 100 µM; with CAKI-1 renal, > 100 µM.

As to `Cn1c2ccccc2c(=O)c2cccc(C(=O)NC(CCCN=C(N)N)C(=O)O)c21` (configuration not stated), the TGI in the assay with UO-31 renal, in the assay on SF-295 CNS, with HS 578T breast, with RPMI-8226 leukemia, in the assay on MALME-3M melanoma and in the assay with TK-10 renal was > 100 µM in each case. In addition, in the assay on DU-145 prostate, the TGI was > 100 µM.

In the case of `CCOc1ccc(/C=C2/C(=O)N=C(NC(C)=O)N2C)cc1`, the TGI with UO-31 renal, in the assay on SF-295 CNS, in the assay with TK-10 renal, in the assay on DU-145 prostate and in the assay on CAKI-1 renal was > 100 µM in each case.

As for `C=C([C@@]1(O)C[C@H]2[C@H](CCC2(OC)OC)[C@@H]2c3ccccc3O[C@@H]21)[Si](C)(C)C`, the TGI in the assay with UO-31 renal, with SF-295 CNS, in the assay on HS 578T breast, in the assay on RPMI-8226 leukemia, in the assay on TK-10 renal and in the assay on DU-145 prostate was > 100 µM throughout. Also, the TGI in the assay on CAKI-1 renal is > 100 µM.

Turning to `CSc1cnc2ccccc2c1SC1CN(Cc2ccccc2)c2ccccc2C1=O` (configuration not stated), the TGI in the assay with UO-31 renal, in the assay on SF-295 CNS, in the assay with RPMI-8226 leukemia, in the assay on MALME-3M melanoma, in the assay on TK-10 renal and in the assay on DU-145 prostate was > 100 µM each time. Further, the TGI in the assay on CAKI-1 renal was > 100 µM.

For `Nc1ccc(C(=O)N2CCC[C@H]2CO)c(N)c1`, the TGI in the assay on UO-31 renal, in the assay on SF-295 CNS, in the assay on HS 578T breast, in the assay on RPMI-8226 leukemia, with TK-10 renal and in the assay with DU-145 prostate was > 100 µM in each case. Moreover, the TGI with CAKI-1 renal is > 100 µM.

In the case of `CCOC(=O)C1C2CCC1CC(=NNc1ccc([N+](=O)[O-])cc1[N+](=O)[O-])C2` (configuration not stated), the TGI in the assay with UO-31 renal, in the assay with SF-295 CNS, with RPMI-8226 leukemia, in the assay with MALME-3M melanoma, in the assay with TK-10 renal and in the assay with DU-145 prostate was > 50 µM throughout. The TGI with CAKI-1 renal is > 50 µM.

As to `O=C1/C(=C/c2ccc(Cl)cc2)CSc2ccccc21`, the TGI with UO-31 renal is 36.1 µM; with HS 578T breast it was 75.5 µM; with RPMI-8226 leukemia, 5.29 µM; in the assay with MALME-3M melanoma, 74.4 µM; with TK-10 renal, > 100 µM; in the assay on DU-145 prostate, > 100 µM. Further, the TGI in the assay with CAKI-1 renal stood at 46.7 µM.

In the case of `CN1COCc2c1ccc1cc3ccc4c(c3nc21)COCN4S(C)(=O)=O`, the TGI in the assay with UO-31 renal, with SF-295 CNS, in the assay on HS 578T breast, in the assay on MALME-3M melanoma, with TK-10 renal and in the assay with DU-145 prostate was > 100 µM throughout. Moreover, the TGI with CAKI-1 renal is > 100 µM.

Take `CN(C)c1ccc(C2SCC(=O)N2c2ccc(Oc3ccc(Cl)cc3)c(Cl)c2)cc1` (configuration not stated): the TGI in the assay with UO-31 renal is 29.6 µM; in the assay with HS 578T breast, 40.4 µM; in the assay with RPMI-8226 leukemia it was 58.1 µM; with MALME-3M melanoma, 38.4 µM; in the assay on TK-10 renal, > 100 µM; with DU-145 prostate, 57.2 µM. The TGI with CAKI-1 renal was > 100 µM.

On to `S=C(Nc1ccc2c(c1)oc1ccccc12)c1cccnc1`, for which the TGI in the assay with UO-31 renal, with SF-295 CNS, with RPMI-8226 leukemia, with MALME-3M melanoma, in the assay with TK-10 renal and with DU-145 prostate was > 100 µM in each case.

`Cc1ccc(S(=O)(=O)NC(=O)N[C@@H](Cc2cnc[nH]2)C(=O)O)cc1`: the TGI in the assay on UO-31 renal, in the assay on SF-295 CNS, in the assay on HS 578T breast, with RPMI-8226 leukemia, in the assay with MALME-3M melanoma and in the assay with TK-10 renal was > 100 µM in each case. Also, the TGI with DU-145 prostate is > 100 µM.

In the case of `Cc1ccc(O)c(-c2cscn2)c1`, the TGI in the assay with UO-31 renal, with SF-295 CNS, with HS 578T breast, in the assay on RPMI-8226 leukemia, with MALME-3M melanoma and with TK-10 renal was > 100 µM each time. Moreover, the TGI in the assay with CAKI-1 renal was > 100 µM.

For `CN1[C@@H]2C[C@@H](OC(=O)[C@H](CO)c3ccccc3)C[C@H]1[C@@H]1O[C@@H]12`, the TGI in the assay with UO-31 renal, in the assay on HS 578T breast, in the assay on RPMI-8226 leukemia, with MALME-3M melanoma, in the assay with TK-10 renal and in the assay with DU-145 prostate was > 100 µM throughout. The TGI in the assay on CAKI-1 renal was > 100 µM.

On to `Nc1ccc(S(=O)(=O)Nc2nccs2)cc1`, for which the TGI with UO-31 renal, in the assay with SF-295 CNS, in the assay on RPMI-8226 leukemia, in the assay on MALME-3M melanoma, with TK-10 renal and in the assay on DU-145 prostate was > 100 µM in each case.

On to `COc1cc(OC)c(C2c3cc4c(cc3OC(N3CCCC3)C2C)OCO4)c(OC)c1` (configuration not stated), for which the TGI is 25.8 µM in the assay with UO-31 renal; 36.1 µM in the assay with SF-295 CNS; 18.1 µM in the assay on HS 578T breast; 43.1 µM in the assay with RPMI-8226 leukemia; > 100 µM in the assay with TK-10 renal; 59.2 µM in the assay with DU-145 prostate.

As for `Oc1cccc(-c2nc3cc(F)ccc3s2)c1`, the TGI was 52.5 µM in the assay on UO-31 renal; 50.7 µM in the assay on SF-295 CNS; 54.3 µM in the assay on RPMI-8226 leukemia; 48.6 µM in the assay with MALME-3M melanoma; 37.4 µM in the assay with TK-10 renal; 57.9 µM in the assay on DU-145 prostate. Moreover, the TGI with CAKI-1 renal stood at 35.2 µM.

For `CC(C)=CCNc1ncnc2c1ncn2CCC#N`, the TGI in the assay on UO-31 renal, in the assay on SF-295 CNS, in the assay on HS 578T breast, in the assay on RPMI-8226 leukemia, in the assay on MALME-3M melanoma and with TK-10 renal was > 100 µM throughout. Also, the TGI with DU-145 prostate is > 100 µM.
